Stop codon readthrough and cell survival data for three compounds are collected here from US20210388364A1, “METHOD FOR DETECTING A SPECIFIC SPLICE EVENT OF A GENE OF INTEREST” (Helmholtz Zentrum Müncher - Deutsches Forschungszentrum Für …, priority 2019, published 2021).

The test system of one data set is Oaz1. Description: FACS analysis of Oaz1-EXSISERS-transfected cells treated with polyamines (ribosomal frameshift readout). It counts as cell-based. To be noted: increasing polyamine concentrations, verified by immunoblot. From the text: FIG. 7: Non-invasive protein-level quantification of co-translation regulation. […] Rising polyamine levels lead to a +1 frameshift and skipping of the in-frame stop codon leading to the full-length Oaz1 antizyme. The usage of the in-frame stop codon will otherwise lead to truncated non-functional Oaz1. Full-length Oaz1 binds and inactivates the enzyme Odc, the rate-limiting enzyme in the polyamine biosynthesis pathway, resulting in a product-mediated closed-loop homeostatic regulation of polyamine levels. […] Transfected (blue cells) cells were analyzed by counting the fraction of blue cells passing the green gate which is set to contain the 25% greenest cells in the untreated condition (0 mM).
Ribosomal frameshift-mediated regulations cannot be monitored by RT-qPCR or other RNA-based quantification methods. Exemplary, Oaz1, […] (FIG. 7a) was chosen, since it was known to be regulated by polyamine. gp41-1 split-inteins-flanked mNeonGreen and NrdJ-1-split-inteins-flanked mTagBFP2 were inserted into the full-length Oaz1 gene and transfected cells were treated with increasing polyamine concentrations to determine whether frameshift regulation could be read out via fluorescence quantification (FIG. 7b).

A further data set deals with HEK-293T cells. The data set is described as follows: Blasticidin-S survival selection of HEK-293T cells with or without bsd-intein in FOXP1 exon 18b. It counts as cell-based, human. From the text:
To knock-out MBNL1/2 (mucleblind-like protein 1/2, SEQ ID NO: 62 and SEQ ID NO: 63) in HEK293T cell cells which carries a blasticidin resistance gene flanked by inteins within the FOXP1 exon 18b, two plasmids expressing a mammalian codon-optimized Cas9 from S. pyogenes (SpCas9, SpyCas9) with a tandem C-terminal SV40 nuclear localization signal (SV40 NLS) via a CBh hybrid RNA-polymerase II promoter and human U6 driving a single-guide-RNA (sgRNA, gRNA) for SpyCas9 (SEQ ID NO: 23) with a cloned protospacer targeting MBNL1 and MBNL2 were co-transfected into the cells. 72 h later, cells were replated in a proper format and medium were supplemented with indicated blasticidin concentration. Control condition were transfected with the same conditions but the sgRNA is targeting the control locus AAVS1 (PPP1R12C) (safe-harbor locus AAVSI intronic region, SEQ ID NO. 64). Genomic DNA was isolated from blasticidin-treated surviving colonies with Wizard® Genomic DNA Purification Kit (Promega).
Next, the inventors checked whether the KO of reported suppressors of FOXP1 exon 18b by knocking out their constitutive exon of MBNL1 and MBNL2 are able to confer survival of the cells upon treatment with bs compared to a control condition where gRNA targeting the safe-harbor AAVS1 locus (PPP1R12C) was transfected instead. […]

Molecules are shown by their SMILES.

For the compound `NCCCCNCCCN` [spermidine], the stop codon readthrough result with Oaz1 was “stimulated”.
On to `NCCCNCCCCNCCCN` [spermine], for which the stop codon readthrough result in the data set with Oaz1 is recorded as “stimulated”.
With `CN(CC[C@H](N)CC(=O)N[C@H]1C=C[C@H](n2ccc(N)nc2=O)O[C@@H]1C(=O)O)C(=N)N` [bs, blasticidin-S], the cell survival entry in the data set with HEK-293T cells (bs 5 to 12.5 μg/mL, reporter cells, control gRNA targeting AAVS1) is “no survival”; in the data set with HEK-293T cells (unmodified HEK-293T cells, targeting MBNL1 and MBNL2 or AAVS1), “no cells survived”.
